Results taken from patent US8192962B2, “Processes for detecting toxic substances” (Daikin Industries, Ltd., priority 2001, dated 2012).

Tested on: Energy system protein genes
Experiment: DNA chip mRNA expression in yeast, energy system protein genes (Table 4)
Assay type: cell-based, Saccharomyces cerevisiae S288C
Method in brief: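 Measured as treated-to-untreated fluorescence ratio on a full-genome yeast DNA chip. Cells (S288C, YPD, 25° C.) were exposed in log phase for two hours to one chemical, dosed to curb growth without killing.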

## O=[N+]([O-])c1cc[n+]([O-])c2ccccc12 [(5), 4-nitroquinolin-N-oxide]
Yeast gene YJR009C
  The level of expressed mRNA in the presence of chemical substance/The level of expressed mRNA in the absence of chemical substance: 1.2
Yeast gene YJR048W
  The level of expressed mRNA in the presence of chemical substance/The level of expressed mRNA in the absence of chemical substance: 0.8
Yeast gene YJR121W, cells incubated two hours with the chemical substance
  The level of expressed mRNA in the presence of chemical substance/The level of expressed mRNA in the absence of chemical substance: 0.8
Yeast gene YJR155W
  The level of expressed mRNA in the presence of chemical substance/The level of expressed mRNA in the absence of chemical substance: 0.7
Yeast gene YKL016C, cells incubated two hours with the chemical substance
  The level of expressed mRNA in the presence of chemical substance/The level of expressed mRNA in the absence of chemical substance: 1.5
Yeast gene YKL060C, cells incubated two hours with the chemical substance
  The level of expressed mRNA in the presence of chemical substance/The level of expressed mRNA in the absence of chemical substance: 1.6
Yeast gene YKL141W, cells incubated two hours with the chemical substance
  The level of expressed mRNA in the presence of chemical substance/The level of expressed mRNA in the absence of chemical substance: 1.5
Yeast gene YKL148C, cells incubated two hours with the chemical substance
  The level of expressed mRNA in the presence of chemical substance/The level of expressed mRNA in the absence of chemical substance: 0.8
Yeast gene YKR009C, cells incubated two hours with the chemical substance
  The level of expressed mRNA in the presence of chemical substance/The level of expressed mRNA in the absence of chemical substance: 1.0
Yeast gene YKR058W, cells incubated two hours with the chemical substance, 25° C., YPD medium
  The level of expressed mRNA in the presence of chemical substance/The level of expressed mRNA in the absence of chemical substance: 0.8
Yeast gene YKR097W
  The level of expressed mRNA in the presence of chemical substance/The level of expressed mRNA in the absence of chemical substance: 1.1
Yeast gene YLL041C, cells incubated two hours with the chemical substance
  The level of expressed mRNA in the presence of chemical substance/The level of expressed mRNA in the absence of chemical substance: 1.6
Yeast gene YLR038C, cells incubated two hours with the chemical substance
  The level of expressed mRNA in the presence of chemical substance/The level of expressed mRNA in the absence of chemical substance: 1.8
Yeast gene YLR044C, cells incubated two hours with the chemical substance
  The level of expressed mRNA in the presence of chemical substance/The level of expressed mRNA in the absence of chemical substance: 1.7
Yeast gene YLR134W, cells incubated two hours with the chemical substance
  The level of expressed mRNA in the presence of chemical substance/The level of expressed mRNA in the absence of chemical substance: 1.3
Yeast gene YLR258W, cells incubated two hours with the chemical substance
  The level of expressed mRNA in the presence of chemical substance/The level of expressed mRNA in the absence of chemical substance: 0.9
Yeast gene YLR284C, cells incubated two hours with the chemical substance
  The level of expressed mRNA in the presence of chemical substance/The level of expressed mRNA in the absence of chemical substance: 1.6
Yeast gene YLR295C, cells incubated two hours with the chemical substance, 25° C., YPD medium
  The level of expressed mRNA in the presence of chemical substance/The level of expressed mRNA in the absence of chemical substance: 2.2
Yeast gene YLR304C, cells incubated two hours with the chemical substance
  The level of expressed mRNA in the presence of chemical substance/The level of expressed mRNA in the absence of chemical substance: 0.6
Yeast gene YLR345W
  The level of expressed mRNA in the presence of chemical substance/The level of expressed mRNA in the absence of chemical substance: 1.2
Yeast gene YLR354C, cells incubated two hours with the chemical substance
  The level of expressed mRNA in the presence of chemical substance/The level of expressed mRNA in the absence of chemical substance: 1.6
Yeast gene YLR377C, cells incubated two hours with the chemical substance
  The level of expressed mRNA in the presence of chemical substance/The level of expressed mRNA in the absence of chemical substance: 1.0
Yeast gene YLR395C, cells incubated two hours with the chemical substance
  The level of expressed mRNA in the presence of chemical substance/The level of expressed mRNA in the absence of chemical substance: 0.7
Yeast gene YML087C
  The level of expressed mRNA in the presence of chemical substance/The level of expressed mRNA in the absence of chemical substance: 0.9
Yeast gene YML120C, cells incubated two hours with the chemical substance
  The level of expressed mRNA in the presence of chemical substance/The level of expressed mRNA in the absence of chemical substance: 0.6
Yeast gene YML129C, cells incubated two hours with the chemical substance
  The level of expressed mRNA in the presence of chemical substance/The level of expressed mRNA in the absence of chemical substance: 1.7
Yeast gene YMR073C, cells incubated two hours with the chemical substance
  The level of expressed mRNA in the presence of chemical substance/The level of expressed mRNA in the absence of chemical substance: 0.8
Yeast gene YMR118C
  The level of expressed mRNA in the presence of chemical substance/The level of expressed mRNA in the absence of chemical substance: 1.2
Yeast gene YMR205C, cells incubated two hours with the chemical substance
  The level of expressed mRNA in the presence of chemical substance/The level of expressed mRNA in the absence of chemical substance: 1.2
Yeast gene YMR261C, cells incubated two hours with the chemical substance
  The level of expressed mRNA in the presence of chemical substance/The level of expressed mRNA in the absence of chemical substance: 0.9
Yeast gene YMR267W, cells incubated two hours with the chemical substance, 25° C., YPD medium
  The level of expressed mRNA in the presence of chemical substance/The level of expressed mRNA in the absence of chemical substance: 1.0
Yeast gene YMR323W, cells incubated two hours with the chemical substance
  The level of expressed mRNA in the presence of chemical substance/The level of expressed mRNA in the absence of chemical substance: 0.7
Yeast gene YNL071W
  The level of expressed mRNA in the presence of chemical substance/The level of expressed mRNA in the absence of chemical substance: 0.6
Yeast gene YNL202W, cells incubated two hours with the chemical substance
  The level of expressed mRNA in the presence of chemical substance/The level of expressed mRNA in the absence of chemical substance: 0.9
Yeast gene YNL241C
  The level of expressed mRNA in the presence of chemical substance/The level of expressed mRNA in the absence of chemical substance: 0.8
Yeast gene YNL331C
  The level of expressed mRNA in the presence of chemical substance/The level of expressed mRNA in the absence of chemical substance: 1.6
Yeast gene YOL086C, cells incubated two hours with the chemical substance
  The level of expressed mRNA in the presence of chemical substance/The level of expressed mRNA in the absence of chemical substance: 1.9
Yeast gene YOL165C
  The level of expressed mRNA in the presence of chemical substance/The level of expressed mRNA in the absence of chemical substance: 0.9
Yeast gene YOR142W, cells incubated two hours with the chemical substance
  The level of expressed mRNA in the presence of chemical substance/The level of expressed mRNA in the absence of chemical substance: 1.4
Yeast gene YOR178C, cells incubated two hours with the chemical substance
  The level of expressed mRNA in the presence of chemical substance/The level of expressed mRNA in the absence of chemical substance: 1.0
Yeast gene YOR388C, cells incubated two hours with the chemical substance
  The level of expressed mRNA in the presence of chemical substance/The level of expressed mRNA in the absence of chemical substance: 1.3
Yeast gene YPL031C, cells incubated two hours with the chemical substance
  The level of expressed mRNA in the presence of chemical substance/The level of expressed mRNA in the absence of chemical substance: 1.5
Yeast gene YPL061W, cells incubated two hours with the chemical substance
  The level of expressed mRNA in the presence of chemical substance/The level of expressed mRNA in the absence of chemical substance: 1.6
Yeast gene YPL088W
  The level of expressed mRNA in the presence of chemical substance/The level of expressed mRNA in the absence of chemical substance: 1.5
Yeast gene YPL171C
  The level of expressed mRNA in the presence of chemical substance/The level of expressed mRNA in the absence of chemical substance: 1.1
Yeast gene YPL240C
  The level of expressed mRNA in the presence of chemical substance/The level of expressed mRNA in the absence of chemical substance: 1.3
Yeast gene YPL262W, cells incubated two hours with the chemical substance
  The level of expressed mRNA in the presence of chemical substance/The level of expressed mRNA in the absence of chemical substance: 0.6
Yeast gene YPL275W, cells incubated two hours with the chemical substance
  The level of expressed mRNA in the presence of chemical substance/The level of expressed mRNA in the absence of chemical substance: 1.2
Yeast gene YPL276W, cells incubated two hours with the chemical substance
  The level of expressed mRNA in the presence of chemical substance/The level of expressed mRNA in the absence of chemical substance: 1.5
Yeast gene YPR048W, cells incubated two hours with the chemical substance
  The level of expressed mRNA in the presence of chemical substance/The level of expressed mRNA in the absence of chemical substance: 0.9
Yeast gene YPR184W, cells incubated two hours with the chemical substance
  The level of expressed mRNA in the presence of chemical substance/The level of expressed mRNA in the absence of chemical substance: 0.9
